Source: PubChem BioAssay (NCI)
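48-hour exposure; five concentrations; linearly interpolated endpoints. The concentration for 50% growth inhibition is given as GI50. At the TGI there is no net growth.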

Experiments:
Assay in all cases: growth of human tumour cells (NCI), 48 h
HCT-15 colon = test system: HCT-15 colon
HL-60(TB) leukemia = test system: HL-60(TB) leukemia
HOP-92 NSCLC = test system: HOP-92 NSCLC
HS 578T breast = test system: HS 578T breast
K-562 leukemia = test system: K-562 leukemia
MCF7 breast = test system: MCF7 breast
SK-MEL-28 melanoma = test system: SK-MEL-28 melanoma

SMILES | GI50 (HCT-15 colon) [µM] | TGI (HCT-15 colon) [µM] | GI50 (HL-60(TB) leukemia) [µM] | TGI (HL-60(TB) leukemia) [µM] | GI50 (HOP-92 NSCLC) [µM] | TGI (HOP-92 NSCLC) [µM] | GI50 (HS 578T breast) [µM] | TGI (HS 578T breast) [µM] | GI50 (K-562 leukemia) [µM] | TGI (K-562 leukemia) [µM] | GI50 (MCF7 breast) [µM] | TGI (MCF7 breast) [µM] | GI50 (SK-MEL-28 melanoma) [µM] | TGI (SK-MEL-28 melanoma) [µM]
COc1ccc(-c2nc3ccccn3c2/C=C/C(=O)c2cc(OC)c(OC)c(OC)c2)cc1 | 4.85 | > 100 | 34 | > 100 | 2.36 | 51.4 | 2.89 | 51.7 | 13.1 | > 100 | 2.38 | 21.4 | 7.1 | > 100
CCN(C(=O)c1cc(F)ccc1Oc1cncnc1N1CC2(CCN(CC3CCC(NS(=O)(=O)CC)CC3)CC2)C1)C(C)C (stereo not drawn) | > 100 | > 100 | > 100 | > 100 | > 100 | > 100 | > 100 | > 100 | > 100 | > 100 | > 100 | > 100 | > 100 | > 100
COc1ccc(/C(C#N)=C/c2ccc(OC)c(OC)c2)cc1 |  | > 100 |  | > 100 |  | > 100 |  | > 100 |  | > 100 |  | > 100 |  | > 100
C[C@@H](CO)[C@@H]1CCC=C2CC[C@]3(C)[C@H](CC[C@@H]4[C@@]5(C)CCCNC(C)(C)[C@@H]5CC[C@]43C)[C@H]21 | 1.49 | 2.99 | 1.98 | 4.54 | 1.87 | 8.71 | 2.08 | 5.19 | 2.01 | 6.73 | 1.49 | 3.02 | 1.72 | 3.45
O=C(NCc1ccc(Cn2c(=O)sn(-c3ccccc3)c2=O)cc1)OCc1ccc2c(Br)cc(Br)c(O)c2n1 | 0.222 | 0.572 | 0.659 | > 20.3 | 0.379 | 1.84 | 1.62 | 4.9 | 0.322 | > 100 | 0.399 | 1.96 | 1.17 | 2.4
c1cc(CNCCN2CCNCC2)ccn1 |  | > 100 |  |  |  | > 100 |  | > 100 |  | > 100 |  | > 100 |  | > 100
C=C1CC/C=C(\C)C(=O)C[C@@H]2[C@@H]1CC2(C)C |  | 3.23 |  | 0.507 |  | 6.4 |  |  |  | > 100 |  | 5.94 |  | 6.34
NC(=O)c1cc(-c2ccc(F)cc2)cc(-c2ccncc2)c1N | > 25 | > 25 | > 25 | > 25 | 23 | > 25 | 5.66 | > 23.4 | > 25 | > 25 | > 25 | > 25 | > 25 | > 25
COc1cc(COC(=O)N(CC(=O)O)c2ccccc2)c([N+](=O)[O-])cc1OC |  | > 100 |  | > 100 |  | > 100 |  | > 100 |  | > 100 |  | > 100 |  | > 100
O=c1[nH]c(=O)n(C2CC(O)C(CO)O2)cc1C1=NC1 (stereo not drawn) |  | > 100 |  |  |  | > 100 |  | > 100 |  |  |  | > 100 |  | > 100
CC1OC(OC2C(O[C@H]3CC[C@@]4(C)C(=CC[C@H]5[C@@H]6C[C@@H]7O[C@]8(CC[C@H](C)CN8)[C@@H](C)[C@@H]7[C@@]6(C)CC[C@@H]54)C3)OC(CO)C(O)C2OC2OC(CO)C(O)C(O)C2O)C(O)C(O)C1O (stereo partly drawn) |  | 30.3 |  | 32.6 |  | 35.5 |  | 31.2 |  |  |  | 32.9 |  | 38.5
CN1CCN(c2ccc3nc(-c4ccc5nc(-c6ccc(OCCC(C)(C)C)cc6)[nH]c5c4)[nH]c3c2)CC1 | 12.1 | 28.2 | 4.71 | 29.1 | 14.3 | 33.2 | 10.5 | 37.1 |  |  |  |  | 3.03 | 9.43
CN(CC(=O)N(Cc1ccc(C2CCCCC2)cc1)c1ccc(C(=O)O)c(O)c1)S(=O)(=O)c1c(F)c(F)c(F)c(F)c1F | 2.08 | 4.43 | 2.18 | 5.82 | 1.95 | 8.91 | 6.92 | 35.1 | 2.05 | 4.57 | 3.56 | 15.1 | 1.86 | 3.89
Nc1nc(-c2ccccc2)nc(N)c1N=O | 3.03 | 11.1 | 19.2 | 88.9 | 5.32 | 23.5 | 8.14 | > 100 | 5.09 | 72.3 | 5.85 | 27.1 | 11.9 | 30.6
CC(=O)O[C@]1(C(C)=O)CC[C@H]2[C@@H]3C=C(C)C4=CC(=O)CC[C@]4(C)[C@H]3CC[C@@]21C | > 100 | > 100 | 12.8 | 61.6 | 14.8 | > 100 | > 60.4 | > 100 | 20.7 | > 100 | > 100 | > 100 | > 100 | > 100
COc1ccc(Nc2c3ccccc3nc3ccccc23)cc1 | 1.08 | 15.5 | 1.69 | 4.1 | 0.259 | 2.93 | 5.26 | 27.5 | 0.583 | 7.19 | 0.409 | 13 | 2.17 | 15.3
O=C(Nc1ccccc1)NS(=O)(=O)c1ccc(-n2nc3c(c2-c2ccc(Cl)cc2)Cc2ccccc2-3)cc1 | 18.5 | 69.7 | 13.4 | 35.6 | 17.1 | 67 | 19.6 | 82.3 | 4.66 | 21.9 | 11.2 | 28.2 | 33.7 | > 100
COc1cc(Nc2ccnc(NCCCNc3ccnc4cc(Cl)ccc34)n2)cc(OC)c1 | 1.51 | 3.09 | 2.04 | 4.54 | 0.431 | 2.69 |  |  | 0.52 | 2.39 | 1.28 | 3 | 1.66 | 3.09
CN1c2ccccc2C(C)(C)C12C=Cc1cc(O)ccc1O2 (stereo not drawn) | 3.41 | 14 | 1.89 | 11.8 | 1.81 | 5.88 | 1.97 | 5.17 | 3.09 | > 100 | 3.52 |  | 3.94 | 15.5
CN(C)c1ccc(Nc2cc(-c3cccc(OC(F)(F)F)c3)nc3ccc(N4CCCC4)cc23)cc1 | 1.75 | 3.53 |  |  | 1.71 | 3.71 |  |  |  |  | 1.86 | 4.61 | 1.79 | 3.3

SMILES | GI50 (HCT-15 colon) [µM] | TGI (HCT-15 colon) [µM] | GI50 (HL-60(TB) leukemia) [µM] | TGI (HL-60(TB) leukemia) [µM] | GI50 (HOP-92 NSCLC) [µM] | TGI (HOP-92 NSCLC) [µM] | GI50 (HS 578T breast) [µM] | TGI (HS 578T breast) [µM] | GI50 (K-562 leukemia) [µM] | TGI (K-562 leukemia) [µM] | GI50 (MCF7 breast) [µM] | TGI (MCF7 breast) [µM] | GI50 (SK-MEL-28 melanoma) [µM] | TGI (SK-MEL-28 melanoma) [µM]
COc1ccc2c(c1)C(=O)c1c-2c(Nc2ccc(Cl)cc2)nc2ccccc12 | 42.3 | > 100 | > 100 | > 100 | 11.5 | 39.2 | 2.58 | 8.82 | 71.6 | > 100 | > 100 | > 100 | 19.7 | > 100
O=C(O)c1cccc(N=Nc2c(S(=O)(=O)O)ccc3c2C(=O)c2ccccc2C3=O)c1O |  | > 100 |  | > 100 |  | > 100 |  | > 100 |  | > 100 |  | > 100 |  | > 100
CCNC(=O)c1cc2c(-c3cc(C(C)(C)O)ccc3Oc3c(C)cc(F)cc3C)cn(C)c(=O)c2[nH]1 | 1.84 | 14.2 | 0.393 | 4.88 | 0.257 | 10.9 | 0.753 | 21.5 | 1.86 | > 100 | 0.521 | 12.9 | 4.37 | 17.9
Nc1nc(-c2ccc(F)cc2)c(-c2ccc3ncccc3n2)s1 | 14.1 | > 25 | > 25 | > 25 | 0.268 | 24.6 | 9.61 | > 25 | > 18.5 | > 25 | 9 | > 25 | > 25 | > 25
CCC1CCc2nc3sc(C(=O)Nc4cccc(F)c4)c(N)c3cc2C1 (stereo not drawn) | 0.428 | > 100 | 0.343 | > 100 | > 100 | > 100 | > 100 | > 100 |  |  | 0.313 | > 100 | > 100 | > 100
COC(=O)C1=C(C)NC(C)=C(C(=O)OC)C1/C=C(Cl)/C=C/c1ccccc1 | 29.7 | > 100 | 17.8 | 41.2 |  |  | 38.4 | > 100 | 22.8 | 54.7 | 24.4 | 78.5 | 17.1 | 35
COc1ccc(OC)c(/C=C(/C)[N+](=O)[O-])c1 | 1.74 | 3.68 |  |  |  |  | 3.47 | 22.9 | 2.57 | > 100 | 0.832 | 2.21 | 2.22 | 4.73
COc1cc(C2=C(C#Cc3ccccc3)COC2=O)cc(OC)c1OC | 1.3 | 9.39 | 0.246 | 3.36 | 2.77 | 10.6 |  |  | 0.629 | > 100 | 0.193 | > 100 |  | > 100
N#Cc1c(N)nc(N2CCOCC2)c(C#N)c1-c1cccnc1 | > 100 | > 100 | 95.6 | > 100 | 24.8 | > 100 | 66.1 | > 100 | 71.7 | > 100 | 55.8 | > 100 | > 100 | > 100
Cn1ccnc1C(=O)/C=C/c1ccccc1 | 2.77 | 13.8 | 2.79 | 7.73 |  |  | 2.39 | 8.6 | 2.74 | 6.86 | 1.27 | 6.77 | 2.61 | 5.97
COC(=O)CCCC(=O)O |  | > 100 |  |  |  | > 100 |  | > 100 |  |  |  | > 100 |  | > 100
CC(=Nc1ccccc1)C1=C(O)C(Cc2ccccc2)NC1=O (stereo not drawn) | 0.0425 | > 48.1 | 0.0265 | 0.0671 | 0.0515 | > 100 | 0.0354 | > 100 | 0.0203 | > 100 | 0.0367 | > 100 | 0.0712 | > 100
COc1cc(OC)c(/C=C/c2cnc3ccccc3n2)c(OC)c1 |  | > 10 |  | > 10 |  | > 10 |  | > 10 |  | > 10 |  | > 10 |  | > 10
CCCCS(=O)(=O)CCC(N)C(=O)O (stereo not drawn) |  | > 100 |  | > 100 |  |  |  | > 100 |  | > 100 |  | > 100 |  | > 100
N#CSCC1CC(O)(c2ccccc2)CC(c2ccc(F)cc2)O1 (stereo not drawn) | 1.76 | 4.89 |  |  | 1.93 | 6.05 | 1.96 | 4.6 | 2.14 | 7.31 | 2.64 | 8.33 | 4.23 | 15.4
Nc1nc(-c2ccccc2)nc2c1[n+]([O-])c1ccccc1[n+]2[O-] |  | > 100 |  | > 100 |  |  |  | > 100 |  | > 100 |  | > 100 |  | > 100
Cc1c(COc2cc(OCc3cccc(C#N)c3)c(CN3C[C@H](O)C[C@@H]3C(=O)O)cc2Cl)cccc1-c1ccc2c(c1)OCCO2 | 13.7 | 26.7 |  |  |  |  | 21 | 53.1 | 3.43 | > 100 | 4.66 | 19.3 | 13.3 | 26.1
COc1cc(O)c(C(=O)/C=C/c2ccc(O)cc2)c(O)c1[C@@H]1C[C@H](CCc2ccc(O)cc2)O[C@H](c2ccc(O)cc2)C1 | 3.43 | 11.9 | 2.02 | 3.91 | 2 | 5.92 | 3.34 | 16.6 |  |  | 3.08 | 8.85 | 3.83 | 14.1
CCCCCCCCCc1cccc(N2C(N)=NC(N)=NC2(C)C)c1 |  | 0.169 |  | 1.71 |  | > 100 |  | 6.48 |  |  |  | > 100 |  | 3.44
